According to ChEMBL document CHEMBL4184331 (J Med Chem, 2018):
Calls of active or inactive are those of the source. No cut-off for these calls is given here.

Experiments:
[1] = Cmax in Sprague-Dawley rat plasma at 1 umol/kg, it by HPLC-MS/MS method; format: ADME, cell-free; set-up: dose 1 umol/kg; details: inhaled or intranasal
[2] = AUClast in Sprague-Dawley rat lung at 1 umol/kg, it by HPLC-MS/MS method; format: ADME, tissue-based; details: in vivo, inhaled_or_intranasal
[3] = AUClast in Sprague-Dawley rat plasma at 1 umol/kg, it by HPLC-MS/MS method; format: ADME, cell-free; details: inhaled or intranasal
[4] = MRTlast in Sprague-Dawley rat lung at 1 umol/kg, it by HPLC-MS/MS method; format: ADME, tissue-based; details: inhaled or intranasal
[5] = Cmax in Sprague-Dawley rat lung at 1 umol/kg, it by HPLC-MS/MS method; format: ADME, tissue-based; set-up: dose 1 umol/kg; details: in vivo, inhaled_or_intranasal
[6] = organism: Rattus norvegicus; experiment: Antiinflammatory activity in LPS-induced Sprague-Dawley rat neutrophilic lung inflammation model assessed as inhibition of neutrophilic infiltration in bronchoalveolar lavage at ID80, it preincubated for 24 hrs followed by LPS challenge measured after 4 hrs relative to control; format: functional
[7] = system: RAW264.7; experiment: cells; details: Mus musculus
Description: Antiinflammatory activity in mouse RAW264.7 cells assessed as inhibition of LPS-induced nitric oxide release preincubated for 15 mins followed by LPS challenge measured after 18 hrs by Griess assay

[8] = MRTlast in Sprague-Dawley rat plasma at 1 umol/kg, it by HPLC-MS/MS method; format: ADME, cell-free; details: inhaled or intranasal
[9] = system: Rattus norvegicus; experiment: Antiinflammatory activity in it dosed LPS-induced Sprague-Dawley rat neutrophilic lung inflammation model assessed as inhibition of neutrophilic infiltration in bronchoalveolar lavage preincubated for 1 hr followed by LPS challenge measured after 4 hrs; format: functional; details: read-out: ID50 (the source's name)
[10] = system: Rattus norvegicus; experiment: Antiinflammatory activity in LPS-induced Sprague-Dawley rat neutrophilic lung inflammation model assessed as inhibition of neutrophilic infiltration in bronchoalveolar lavage at 3 mg/kg, it preincubated for 1 hr followed by LPS challenge measured after 4 hrs relative to control; format: functional
[11] = system: Rattus norvegicus; experiment: Antiinflammatory activity in LPS-induced Sprague-Dawley rat neutrophilic lung inflammation model assessed as inhibition of neutrophilic infiltration in bronchoalveolar lavage at 0.1 mg/kg, it preincubated for 1 hr followed by LPS challenge measured after 4 hrs relative to control; format: functional
[12] = system: Rattus norvegicus; experiment: Antiinflammatory activity in LPS-induced Sprague-Dawley rat neutrophilic lung inflammation model assessed as inhibition of neutrophilic infiltration in bronchoalveolar lavage at 1 mg/kg, it preincubated for 1 hr followed by LPS challenge measured after 4 hrs relative to control; format: functional
[13] = system: Rattus norvegicus; experiment: Antiinflammatory activity in LPS-induced Sprague-Dawley rat neutrophilic lung inflammation model assessed as inhibition of neutrophilic infiltration in bronchoalveolar lavage at 0.3 mg/kg, it preincubated for 1 hr followed by LPS challenge measured after 4 hrs relative to control; format: functional
[14] = molecular target: T1, Glucocorticoid receptor (Homo sapiens) (UniProt P04150); experiment: Displacement of [3H]dexamethasone from human recombinant glucocorticoid receptor expressed in insect cells at 1000 nM after 24 hrs by scintillation proximity assay relative to control
T1 sequence (whole entry): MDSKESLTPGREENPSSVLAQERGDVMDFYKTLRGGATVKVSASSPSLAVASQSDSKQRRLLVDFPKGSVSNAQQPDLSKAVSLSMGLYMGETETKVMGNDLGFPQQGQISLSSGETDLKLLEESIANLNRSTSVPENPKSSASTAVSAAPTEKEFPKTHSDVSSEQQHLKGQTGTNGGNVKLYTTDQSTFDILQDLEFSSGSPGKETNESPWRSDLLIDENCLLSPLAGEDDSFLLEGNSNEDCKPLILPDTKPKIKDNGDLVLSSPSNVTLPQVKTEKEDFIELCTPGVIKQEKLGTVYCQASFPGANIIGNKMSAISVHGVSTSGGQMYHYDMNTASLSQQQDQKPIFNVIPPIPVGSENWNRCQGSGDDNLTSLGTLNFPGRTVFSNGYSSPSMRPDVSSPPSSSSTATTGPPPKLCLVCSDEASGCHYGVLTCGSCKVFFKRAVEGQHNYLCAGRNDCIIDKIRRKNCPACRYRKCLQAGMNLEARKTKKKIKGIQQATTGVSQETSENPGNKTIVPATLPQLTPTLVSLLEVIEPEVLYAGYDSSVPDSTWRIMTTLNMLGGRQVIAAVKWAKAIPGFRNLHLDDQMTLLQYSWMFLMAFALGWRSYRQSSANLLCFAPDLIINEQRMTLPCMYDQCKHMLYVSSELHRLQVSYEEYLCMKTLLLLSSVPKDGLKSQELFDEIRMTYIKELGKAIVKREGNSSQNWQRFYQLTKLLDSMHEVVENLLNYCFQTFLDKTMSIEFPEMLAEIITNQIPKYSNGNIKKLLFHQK

[15] = physchem
Description: Dissociation constant, pKa of the compound

[16] = molecular target: T2, Glucocorticoid receptor (Homo sapiens, UniProt P04150); experiment: biochemical
T2 sequence (P04150 whole entry): T1 sequence (whole entry)
Description: Displacement of [3H]dexamethasone from human recombinant glucocorticoid receptor expressed in insect cells after 24 hrs by scintillation proximity assay

[17] = system: Rattus norvegicus; experiment: Antiinflammatory activity in LPS-induced Sprague-Dawley rat neutrophilic lung inflammation model assessed as inhibition of neutrophilic infiltration in bronchoalveolar lavage at 0.03 mg/kg, it preincubated for 1 hr followed by LPS challenge measured after 4 hrs relative to control; format: functional
[18] = molecular target: T2, Glucocorticoid receptor
Description: Induction of nuclear translocation of human recombinant ProLabel-tagged glucocorticoid receptor expressed in CHO-K1 cells after 3 hrs by luminescence method

[19] = molecular target: T3, Mineralocorticoid receptor (Homo sapiens, UniProt P08235)
T3 sequence (P08235 whole entry): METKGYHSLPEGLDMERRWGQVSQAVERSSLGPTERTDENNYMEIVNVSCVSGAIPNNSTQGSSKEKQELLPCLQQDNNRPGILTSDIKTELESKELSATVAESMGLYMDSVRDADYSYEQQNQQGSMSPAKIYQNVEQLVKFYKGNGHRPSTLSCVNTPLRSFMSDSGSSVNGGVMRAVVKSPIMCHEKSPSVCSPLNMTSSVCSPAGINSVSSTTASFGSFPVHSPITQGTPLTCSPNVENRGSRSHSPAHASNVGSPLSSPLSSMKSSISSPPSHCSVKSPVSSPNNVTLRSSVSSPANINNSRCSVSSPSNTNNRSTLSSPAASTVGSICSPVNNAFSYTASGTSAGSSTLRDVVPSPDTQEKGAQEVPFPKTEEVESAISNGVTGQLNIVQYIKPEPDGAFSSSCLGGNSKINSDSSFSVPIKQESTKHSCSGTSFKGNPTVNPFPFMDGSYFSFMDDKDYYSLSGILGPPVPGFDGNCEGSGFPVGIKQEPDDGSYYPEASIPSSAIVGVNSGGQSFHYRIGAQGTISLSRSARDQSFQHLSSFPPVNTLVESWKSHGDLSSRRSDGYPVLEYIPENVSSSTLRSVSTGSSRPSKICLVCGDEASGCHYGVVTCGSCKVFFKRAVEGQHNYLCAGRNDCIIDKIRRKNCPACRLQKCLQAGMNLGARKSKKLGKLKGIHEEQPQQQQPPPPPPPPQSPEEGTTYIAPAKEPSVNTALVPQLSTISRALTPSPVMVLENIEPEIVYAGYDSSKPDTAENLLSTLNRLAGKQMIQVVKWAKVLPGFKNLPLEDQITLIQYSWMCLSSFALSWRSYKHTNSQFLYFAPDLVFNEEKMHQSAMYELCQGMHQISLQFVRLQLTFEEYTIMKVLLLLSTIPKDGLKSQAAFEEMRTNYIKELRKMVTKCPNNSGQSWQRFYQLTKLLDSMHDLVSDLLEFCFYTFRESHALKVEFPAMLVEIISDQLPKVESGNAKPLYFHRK
Description: Induction of nuclear translocation of human recombinant ProLabel-tagged mineralocorticoid receptor expressed in CHO-K1 cells after 3 hrs by luminescence method

Row | Cmax [1] | AUClast [2] | AUC(0-t) [3] | MRT last [4] | Cmax [5] | IC50 [7] | MRT last [8] | SMILES | inhibition (INH) [6] | ED50 [9] | inhibition in vivo at 3 mg/kg [10] | inhibition in vivo at 0.1 mg/kg [11] | inhibition in vivo at 1 mg/kg [12] | inhibition [6] | inhibition in vivo at 0.3 mg/kg [13] | inhibition [14] | pKa [15] | Ki [16] | inhibition in vivo at 0.03 mg/kg [17] | EC50 [18] | EC50 [19]
1 | 45 nM | 1049 nmol·h/g | 0.05 µM·h | 9.5 h | 77.1 nmol/g | 0.1 nM | 1.4 h | C[C@@H]1C[C@H]2[C@@H]3C[C@H](F)C4=CC(=O)C=C[C@]4(C)[C@@]3(F)[C@@H](O)C[C@]2(C)[C@@]1(OC(=O)c1ccco1)C(=O)SCF [FLUTICASONE FUROATE] | >80% |  |  |  |  |  |  |  |  |  |  |  | 
2 | 127 nM | 110.03 nmol·h/g | 11.6 µM·h | 0.71 h | 18.67 nmol/g | 0.82 nM | 1.2 h | CCCC1O[C@@H]2C[C@H]3[C@@H]4CCC5=CC(=O)C=C[C@]5(C)[C@H]4[C@@H](O)C[C@]3(C)[C@]2(C(=O)CO)O1 (stereo not given in full) [BUDESONIDE] |  | 0.34 µmol/kg | 84% | 29% | 73% | inactive | 45% |  |  |  |  |  | 
3 |  |  |  |  |  |  |  | C[C@]12C=CC(=O)C=C1[C@@H](F)C[C@H]1[C@@H]3C[C@H]4CNC[C@@]4(C(=O)CO)[C@@]3(C)C[C@H](O)[C@@]12F |  |  |  |  |  |  |  | 40% | 8.82 |  |  |  | 

Row | SMILES | Cmax [1] | AUClast [2] | AUC(0-t) [3] | MRT last [4] | Cmax [5] | IC50 [7] | MRT last [8] | inhibition (INH) [6] | ED50 [9] | inhibition in vivo at 3 mg/kg [10] | inhibition in vivo at 0.1 mg/kg [11] | inhibition in vivo at 1 mg/kg [12] | inhibition [6] | inhibition in vivo at 0.3 mg/kg [13] | inhibition [14] | pKa [15] | Ki [16] | inhibition in vivo at 0.03 mg/kg [17] | EC50 [18] | EC50 [19]
4 | C[C@]12C=CC(=O)C=C1[C@@H](F)C[C@H]1[C@@H]3C[C@H]4CN(Cc5cccc(Cl)c5)C[C@@]4(C(=O)CO)[C@@]3(C)C[C@H](O)[C@@]12F | 110 nM | 871.2 nmol·h/g | 0.118 µM·h | 16.7 h | 64.26 nmol/g | 0.08 nM | 1.4 h | >80% | 0.097 µmol/kg |  | 56% | 92% |  | 64% |  | 6.64 | 0.76 nM | 47% | 1.8 nM | 2.5 nM
